{"source": "patent US8791148B2", "about": "“Substituted benzimidazolone derivatives, medicaments comprising them and their use” (AbbVie Deutschland GmbH & Co. KG, priority 2006, dated 2014)", "data": [{"biological_target": "T1, human vasopressin V1b receptor (Homo sapiens, UniProt P47901)", "T1 construct": "expressed in transfected cells; host or cells: CHO-K1 (cell line hV1b-3H2_CHO), membrane preparation", "T1 sequence (P47901 1-424)": "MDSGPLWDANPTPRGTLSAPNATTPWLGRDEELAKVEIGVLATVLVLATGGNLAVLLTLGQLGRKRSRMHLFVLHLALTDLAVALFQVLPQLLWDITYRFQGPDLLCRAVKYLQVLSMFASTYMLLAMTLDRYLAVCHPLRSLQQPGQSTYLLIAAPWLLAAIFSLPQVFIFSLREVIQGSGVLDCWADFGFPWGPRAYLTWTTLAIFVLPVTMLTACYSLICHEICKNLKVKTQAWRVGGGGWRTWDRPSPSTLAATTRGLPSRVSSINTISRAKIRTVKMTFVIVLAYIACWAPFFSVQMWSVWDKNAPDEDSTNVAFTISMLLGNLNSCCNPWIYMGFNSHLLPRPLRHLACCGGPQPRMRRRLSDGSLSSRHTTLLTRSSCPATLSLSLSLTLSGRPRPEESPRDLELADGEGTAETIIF", "assay": "Vasopressin V1b receptor binding assay", "details": "membranes from CHO-K1 cells with stably expressed human V1b receptors; displacement of 1.5 nM 3H-AVP; read-out: V1b receptor affinity (affinity constant Ki)", "in_short": "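Ki values come from nonlinear regression of triplicate scintillation counts after filtration. Test compound (2% DMSO in the mixture) and radioligand were incubated 60 min at room temperature with human V1b membranes in pH 7.4 Tris buffer with 10 mM MgCl2 and 0.1% BSA. Nonspecific binding was set with 1 uM AVP.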", "units": {"Ki": "nM"}, "values": [{"smiles": "COc1ccc(S(=O)(=O)n2c(=O)n(C(C(=O)N3CC[C@H](N4CCNCC4)C3)c3ccccc3)c3cc(C#N)ccc32)cc1", "note": "(stereo partly drawn) [Example 150, 1-(4-Methoxybenzenesulfonyl)-2-oxo-3-[2-oxo-1-phenyl-2-((S)-3-piperazin-1-ylpyrrolidin-1-yl)ethyl]-2,3-dihydro-1H-benzimidazole-5-carbonitrile]", "Ki": "< 100"}, {"smiles": "COc1ccc(S(=O)(=O)n2c(=O)n(C(Cc3ccccc3)C(=O)N3CCN(c4ccncc4)CC3)c3cc(Cl)ccc32)cc1", "note": "(stereo not drawn) [Example 27, 3-[1-Benzyl-2-oxo-2-(4-pyridin-4-ylpiperazin-1-yl)ethyl]-5-chloro-1-(4-methoxybenzenesulfonyl)-1,3-dihydrobenzimidazol-2-one]", "Ki": "100 to 500"}, {"smiles": "COc1ccc(S(=O)(=O)n2c(=O)n(C(C(=O)Nc3ccccc3)c3ccccc3)c3cc(Cl)ccc32)cc1", "note": "(stereo not drawn) [Example 103, 2-[6-Chloro-3-(4-methoxybenzenesulfonyl)-2-oxo-2,3-dihydrobenzimidazol-1-yl]-2,N-diphenylacetamide]", "Ki": "500 to 10000"}, {"smiles": "COc1ccc(S(=O)(=O)n2c(=O)n(C(C(=O)N3CC[C@H](NC4CCN(CCF)CC4)C3)c3ccccc3)c3cc(C#N)ccc32)cc1", "note": "(stereo partly drawn) [Example 245, 3-(2-{(S)-3-[1-(2-Fluoro-ethyl)-piperidin-4-ylamino]-pyrrolidin-1-yl}-2-oxo-1-phenyl-ethyl)-1-(4-methoxy-benzenesulfonyl)-2-oxo-2,3-dihydro-1H-benzoimidazole-5-carbonitrile]", "Ki": "< 100"}, {"smiles": "O=C(C(c1ccccc1)n1c(=O)n(S(=O)(=O)c2ccco2)c2ccc(Cl)cc21)N1CCN(c2ccncc2)CC1", "note": "(stereo not drawn) [Example 2, 5-Chloro-1-(furan-2-sulfonyl)-3-[2-oxo-1-phenyl-2-(4-pyridin-4-ylpiperazin-1-yl)ethyl]-1,3-dihydrobenzimidazol-2-one]", "Ki": "100 to 500"}, {"smiles": "COc1ccc(S(=O)(=O)n2c(=O)n(C(C(=O)N3CCN(C4CCN(C)CC4)CC3)c3ccccc3)c3cc(C#N)ccc32)cc1", "note": "(stereo not drawn) [Example 11, 1-(4-Methoxybenzenesulfonyl)-3-{2-[4-(1-methylpiperidin-4-yl)piperazin-1-yl]-2-oxo-1-phenylethyl}-2-oxo-2,3-dihydro-1H-benzimidazole-5-carbonitrile]", "Ki": "500 to 10000"}, {"smiles": "COc1ccccc1S(=O)(=O)n1c(=O)n(C(C(=O)N2CCN(c3ccncc3)CC2)c2ccccc2)c2cc(Cl)ccc21", "note": "(stereo not drawn) [Example 45, 5-Chloro-1-(2-methoxybenzenesulfonyl)-3-[2-oxo-1-phenyl-2-(4-pyridin-4-ylpiperazin-1-yl)ethyl]-1,3-dihydrobenzimidazol-2-one]", "Ki": "100 to 500"}, {"smiles": "COc1ccc(S(=O)(=O)n2c(=O)n(C(C(=O)N3CCN(c4ccncc4)CC3)c3ccccc3)c3cc(C#N)ccc32)c(OC)c1", "note": "(stereo not drawn) [Example 48, 1-(2,4-Dimethoxybenzenesulfonyl)-2-oxo-3-[2-oxo-1-phenyl-2-(4-pyridin-4-ylpiperazin-1-yl)-ethyl]-2,3-dihydro-1H-benzimidazole-5-carbonitrile]", "Ki": "500 to 10000"}, {"smiles": "COc1ccc(S(=O)(=O)n2c(=O)n(C(C(=O)N3CCC[C@H](NC4CCN(C(C)C)CC4)C3)c3ccccc3)c3cc(C#N)ccc32)cc1", "note": "(stereo partly drawn) [Example 247, 3-{2-[(S)-3-(1-Isopropyl-piperidin-4-ylamino)-piperidin-1-yl]-2-oxo-1-phenylethyl}-1-(4-methoxy-benzenesulfonyl)-2-oxo-2,3-dihydro-1H-benzoimidazole-5-carbonitrile]", "Ki": "< 100"}]}]}
